Columns and labels:
[1] = system: 5 mm incision on equatorial sclera of human cadaveric eyes; experiment: Leaking pressure of laser-welded scleral incisions in cadaveric eyes
Excerpt: Welding Procedure: To measure leaking pressures, an 18-gauge butterfly needle was connected by plastic tubing to a water bottle. The inner pressure in the bottle was controlled by a hand-pumped sphygmomanometer. Nonpreserved cadaveric eyes were defrosted in room-temperature water. The butterfly needle was inserted in the vitreous cavity through equatorial sclera, and the eye was pressurized to 25 to 30 mm Hg. The corneal epithelium was then removed at the wound site, and a caliper set on 5 mm used to make the extent of the incision on equatorial sclera, perpendicular to the limbus. All incisions were placed equidistant from the limbus, and areas of blue or thin sclera were avoided. […] The exact power output of the fiber was measured using a power meter (model 210; Coherent, Palo Alto, Calif.). Argon laser goggles (Glendale Protective Technologies, Lakeland, Fla.) were worn, which allowed viewing of the fluorescence from the Ce6 (emission 670 nm). To set the remaining adhesive on the scleral surface, which surrounded the wound, additional laser was applied until loss of fluorescence of the dye, which took another 30 to 45 seconds.
Leaking Pressure: Leaking pressures were then measured using the sphygmomanometer, which was increasingly pressurized in approximately 10-mm Hg increments. Leaking pressure was recorded the moment the wound leaked air or fluid. […]

[2] = in vitro; cited from earlier work

| Compound | Mean Leaking Pressure ([1]; argon blue-green laser 488-514 nm, total energy 24-57 J, 60-120 s, mean ± spread) | Mean Leaking Pressure/Total Energy Ratio ([1]; leaking pressure in mm Hg, total energy in joules) | triplet yield [2] |
| --- | --- | --- | --- |
| BSA − Ce6 conjugate: Covalent bovine serum albumin-chlorin e6 conjugate solder; protein 5.2 mM, Ce6 6.2 mM, ratio 0.84 | 78.0 ± 11.9 millimeters of mercury | 1.75 ± 0.26 | – |
| CC1(C)C(/C=C/C=C/C=C/C=C2\N(CCCCS(=O)(=O)O)c3ccc4ccccc4c3C2(C)C)=[N+](CCCCS(=O)(=O)[O-])c2ccc3ccccc3c21 [indocyanine green] | – | – | 0.11 |
